This note sets out measurements from US20240368154A1 (GENOSCO Inc., priority 2023, published 2024).

Test [1] deals with T1, Recombinant ROCK1 (amino acids 1-477) (Homo sapiens, UniProt Q13464).
T1 construct: Recombinant ROCK1 (amino acids 1-477)
Put plainly: ROCK inhibition assay, LANCE Ultra TR-FRET kinase assay. The conditions noted are these: at Km of ATP (table title), method: 1 mM ATP, 50 nM ULight-CREBtide substrate, 1 hour, room temperature. In kind it is biochemical. The procedure:
(§1) Kinase IC50 was determined through an in vitro assay based on LANCE Ultra TR-FRET (Time-Resolved Fluorescence Resonance Energy Transfer) homogeneous technologies method (Perkin Elmer). Recombinant ROCK1 (amino acids 1-477) and ROCK2 (amino acids 5-554) proteins were purchased from Carna Biosciences and SignalChem. Compound activities were measured by Envision and IC50s were calculated. The assays were performed in white LUMITRAC™ 200 96 well half-area microplates from Greiner Bio-One. The kinase reaction buffer consisted of 50 mM HEPES pH 7.5, 1 mM EGTA, 10 mM MgCl2, 2 mM DTT and 0.01% Tween-20. Kinases were incubated with 50 nM (ULight-CREBtide) substrate in the presence of 1 mM (ROCK1) or 1 mM (ROCK2) of ATP. The kinase reaction was carried out for 1 hour before addition of a stopping buffer to a final of 10 mM EDTA and 0.6 nM of LANCE Ultra Europium anti-phospho-CREB (Ser133) antibody (PerkinElmer TRF0200) in LANCE detection buffer. All assay incubations were performed at room temperature, and the microplates were sealed with polyester film during that time. The reaction was incubated for 1 hour, and the signal was read in Envision in TR-FRET mode (excitation at 320 nm and emission at 615/665 nm).
(§2) As used herein, a way to describe potency of inhibitory activity (nM) is a value of inhibitory activity at 50% (IC50).
Background: TR-FRET usually uses a lanthanide donor and a delayed reading to cut background.

Test [2] deals with T2, Recombinant ROCK2 (amino acids 5-554) (Homo sapiens, UniProt O75116).
T2 construct: ROCK2 (amino acids 5-554)
T2 sequence (O75116 5-554): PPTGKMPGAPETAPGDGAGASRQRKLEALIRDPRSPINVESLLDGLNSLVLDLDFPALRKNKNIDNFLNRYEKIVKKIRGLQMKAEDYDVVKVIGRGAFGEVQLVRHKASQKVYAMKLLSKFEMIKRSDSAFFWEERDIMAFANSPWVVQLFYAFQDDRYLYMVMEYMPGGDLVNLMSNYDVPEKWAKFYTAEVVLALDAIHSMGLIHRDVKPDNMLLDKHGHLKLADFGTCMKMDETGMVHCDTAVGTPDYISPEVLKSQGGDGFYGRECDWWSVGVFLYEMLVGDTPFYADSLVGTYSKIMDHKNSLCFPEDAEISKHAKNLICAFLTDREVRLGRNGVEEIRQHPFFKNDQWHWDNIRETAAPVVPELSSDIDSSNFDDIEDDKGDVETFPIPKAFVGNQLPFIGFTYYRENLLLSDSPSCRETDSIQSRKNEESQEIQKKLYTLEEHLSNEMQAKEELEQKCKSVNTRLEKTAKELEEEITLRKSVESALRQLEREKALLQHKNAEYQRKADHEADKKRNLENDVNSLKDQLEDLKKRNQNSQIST
The test is described as above. In kind it is biochemical. The conditions noted are these: at Km of ATP (table title), method: 1 mM ATP, 50 nM ULight-CREBtide substrate, 1 hour, room temperature. The procedure:
as §1, §2

Counter-ions that a name gives are not always drawn.

T1 sequence (Q13464 1-477): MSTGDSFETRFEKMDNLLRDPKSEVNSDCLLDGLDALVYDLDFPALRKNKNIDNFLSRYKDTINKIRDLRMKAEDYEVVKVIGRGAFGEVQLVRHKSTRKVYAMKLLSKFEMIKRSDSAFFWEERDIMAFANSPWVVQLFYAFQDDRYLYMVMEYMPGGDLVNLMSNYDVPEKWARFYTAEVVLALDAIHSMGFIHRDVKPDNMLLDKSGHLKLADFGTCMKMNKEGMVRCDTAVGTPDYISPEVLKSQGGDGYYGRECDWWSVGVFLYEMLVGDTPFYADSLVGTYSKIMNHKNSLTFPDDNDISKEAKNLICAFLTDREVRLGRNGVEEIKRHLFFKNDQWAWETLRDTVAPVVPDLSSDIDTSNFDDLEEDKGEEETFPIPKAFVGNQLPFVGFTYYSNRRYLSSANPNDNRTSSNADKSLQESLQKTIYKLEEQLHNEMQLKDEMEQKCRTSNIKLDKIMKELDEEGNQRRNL

As to `O=C(c1cn(CC2CC(O)C2)c2cc(-c3cn[nH]c3F)ncc12)C1COc2ccc(Cl)cc2C1` (stereo not shown) [Compound 1-37], the IC50 in test [1] lay in the range of 51 to 500 nM; in test [2] it was 11 to 50 nM.

Take `O=C(c1cn(CC2CC(O)C2)c2cc(-c3cn[nH]c3Cl)ncc12)C1COc2ccc(Cl)cc2C1` (stereo not shown) [Compound 1-38]: the IC50 is 11 to 50 nM in test [1] and below 10 nM in test [2].

In the case of `CC(O)Cn1cc(C(=O)C2COc3ccc(Cl)cc3C2)c2ccc(-c3c[nH]nc3Cl)cc21` (stereo not shown) [Compound 1-39], the IC50 in test [1] and in test [2] was 11 to 50 nM throughout.

Take `CC(O)Cn1cc(C(=O)[C@@H]2COc3ccc(Cl)cc3C2)c2ccc(-c3c[nH]nc3Cl)cc21` (stereo partly shown) [Compound 1-40]: the IC50 was 11 to 50 nM in test [1] and below 10 nM in test [2].

For `CC(O)Cn1cc(C(=O)[C@@H]2COc3ccc(Cl)cc3C2)c2ccc(-c3c[nH]nc3F)cc21` (stereo partly shown) [Compound 1-41], the IC50 is 11 to 50 nM in test [1] and below 10 nM in test [2].

As to `COc1n[nH]cc1-c1ccc2c(C(=O)[C@@H]3COc4ccc(Cl)cc4C3)cn(CC(C)O)c2c1` (stereo partly shown) [Compound 1-42], the values for the IC50 in test [1] and in test [2] were 11 to 50 nM and below 10 nM, respectively.

Turning to `COc1n[nH]cc1-c1ccc2c(C(=O)C3COc4ccc(Cl)cc4C3)cn(C[C@H](C)O)c2c1` (stereo partly shown) [Compound 1-43], the IC50 in test [1] is 51 to 500 nM; in test [2], 11 to 50 nM.

Turning to `COc1n[nH]cc1-c1ccc2c(C(=O)C3COc4ccc(Cl)cc4C3)cn(C[C@@H](C)O)c2c1` (stereo partly shown) [Compound 1-44], the IC50 in test [1] and in test [2] was 11 to 50 nM each time.

For `C[C@H](O)Cn1cc(C(=O)C2COc3ccc(Cl)cc3C2)c2cnc(-c3cn[nH]c3Cl)nc21` (stereo partly shown) [Compound 1-45], the IC50 in test [1] was 11 to 50 nM; in test [2] it was below 10 nM.

On to `C[C@H](O)Cn1cc(C(=O)[C@@H]2COc3ccc(Cl)cc3C2)c2cnc(-c3cn[nH]c3Cl)nc21` [Compound 1-46], for which the IC50 in test [1] and in test [2] was below 10 nM throughout.

Take `C[C@@H](O)Cn1cc(C(=O)C2COc3ccc(Cl)cc3C2)c2cnc(-c3cn[nH]c3F)nc21` (stereo partly shown) [Compound 1-47]: the values for the IC50 in test [1] and in test [2] were 11 to 50 nM and below 10 nM, respectively.

On to `C[C@@H](O)Cn1cc(C(=O)C2COc3ccc(F)cc3C2)c2cnc(-c3cn[nH]c3F)nc21` (stereo partly shown) [Compound 1-48], for which the IC50 in test [1] and in test [2] was below 10 nM in each case.

With `C[C@@H](O)Cn1cc(C(=O)[C@@H]2COc3ccc(F)cc3C2)c2cnc(-c3cn[nH]c3F)nc21` [Compound 1-49], the IC50 in test [1] and in test [2] was below 10 nM throughout.

`C[C@@H](O)Cn1cc(C(=O)[C@@H]2COc3ccc(F)cc3C2)c2cnc(-c3cn[nH]c3F)nc21` [Compound 1-50]: the IC50 in test [1] and in test [2] was below 10 nM in each case.

With `C[C@@H](O)Cn1cc(C(=O)[C@@H]2COc3ccc(F)cc3C2)c2cnc(-c3cn[nH]c3F)nc21` [Compound 1-51], the IC50 in test [1] and in test [2] was below 10 nM in each case.

For the compound `COc1[nH]ncc1-c1ncc2c(C(=O)C3COc4ccc(F)cc4C3)cn(CC(C)(C)O)c2n1` (stereo not shown) [Compound 1-52], the values for the IC50 in test [1] and in test [2] were 51 to 500 nM and 11 to 50 nM, respectively.

With `COc1[nH]ncc1-c1ncc2c(C(=O)C3COc4ccc(Cl)cc4C3)cn(C[C@H](C)O)c2n1` (stereo partly shown) [Compound 1-53], the figures for the IC50 in test [1] and in test [2] were 51 to 500 nM and 11 to 50 nM, respectively.

For `CC(C)(O)Cn1cc(C(=O)C2COc3ccc(Cl)cc3C2)c2cnc(-c3cn[nH]c3F)nc21` (stereo not shown) [Compound 1-54], the IC50 is 11 to 50 nM in test [1] and below 10 nM in test [2].

For `CC(C)(O)Cn1cc(C(=O)[C@@H]2COc3ccc(Cl)cc3C2)c2cnc(-c3cn[nH]c3F)nc21` [Compound 1-55], the IC50 in test [1] and in test [2] was below 10 nM each time.

For `CC(C)(O)Cn1cc(C(=O)C2COc3ccc(Cl)cc3C2)c2cnc(-c3cn[nH]c3Cl)nc21` (stereo not shown) [Compound 1-57], the IC50 in test [1] and in test [2] was below 10 nM each time.

In the case of `COc1[nH]ncc1-c1ncc2c(C(=O)C3COc4ccc(Cl)cc4C3)cn(CC(C)(C)O)c2n1` (stereo not shown) [Compound 1-58], the IC50 was 11 to 50 nM in test [1] and below 10 nM in test [2].

With `COc1n[nH]cc1-c1cc2c(cn1)c(C(=O)C1COc3ccc(Cl)cc3C1)cn2CCO` (stereo not shown) [Compound 1-59, hydrochloride], the IC50 in test [1] (hydrochloride) was in the range of 51 to 500 nM; in test [2] (hydrochloride), 11 to 50 nM.

For `COc1[nH]ncc1-c1cc2c(cn1)c(C(=O)C1COc3ccc(Cl)cc3C1)cn2CCN(C)C` (stereo not shown) [Compound 1-60, (6-chlorochroman-3-yl)(1-(2-(dimethylamino)ethyl)-6-(5-methoxy-1H-pyrazol-4-yl)-1H-pyrrolo[3,2-c]pyridin-3-yl)methanone metanesulfonic acid], the IC50 in test [1] and in test [2] was below 10 nM each time.

`O=C(c1cn(CCO)c2cc(-c3cn[nH]c3)ccc12)C1COc2ccccc2O1` (stereo not shown) [Compound 2-1, 2,3-Dihydro-1,4-benzodioxin-3-yl-[1-(2-hydroxyethyl)-6-(1H-pyrazol-4-yl)indol-3-yl]methanone]: the IC50 in test [1] and in test [2] was below 10 nM in each case.

Regarding `O=C(c1cn(CCO)c2cc(-c3cn[nH]c3)ccc12)C1COc2ccc(Cl)cc2C1` (stereo not shown) [Compound 2-2, (6-Chlorochroman-3-yl)-[1-(2-hydroxyethyl)-6-(1H-pyrazol-4-yl)indol-3-yl]methanone], the IC50 in test [1] and in test [2] was below 10 nM throughout.

As to `O=C(c1cn(CCO)c2cc(-c3c[nH]c4ncccc34)ccc12)C1COc2ccccc2O1` (stereo not shown) [Compound 2-3], the figures for the 50% inhibitory concentration (IC50) in test [1] and in test [2] were 51 to 500 nM and 11 to 50 nM, respectively.

`O=C(c1cn(CCO)c2cc(-c3c[nH]nc3Cl)ccc12)C1COc2ccccc2O1` (stereo not shown) [Compound 2-4]: the IC50 in test [1] and in test [2] was below 10 nM throughout.

Turning to `O=C(c1cn(CCO)c2cc(-c3c[nH]c4ncccc34)ccc12)C1COc2ccccc2C1` (stereo not shown) [Compound 2-5], the IC50 in test [1] was in the range of 51 to 500 nM; in test [2], 11 to 50 nM.

Turning to `O=C(c1cn(CCO)c2cc(-c3c[nH]nc3Cl)ccc12)C1COc2ccccc2C1` (stereo not shown) [Compound 2-6], the IC50 in test [1] is 11 to 50 nM; in test [2], below 10 nM.

Take `O=C(c1cn(CCO)c2cc(-c3cn[nH]c3)ccc12)C1COc2ccc(F)cc2C1` (stereo not shown) [Compound 2-7]: the IC50 in test [1] and in test [2] was below 10 nM each time.

On to `COc1ccc2c(c1)OCC(C(=O)c1cn(CCO)c3cc(-c4cn[nH]c4)ccc13)C2` (stereo not shown) [Compound 2-8], for which the IC50 in test [1] and in test [2] was 51 to 500 nM each time.

Regarding `O=C(c1cn(CCO)c2cc(-c3cn[nH]c3)ccc12)C1COc2ccc(F)cc2O1` (stereo not shown) [Compound 2-9], the IC50 in test [1] is 11 to 50 nM; in test [2] it was below 10 nM.

Take `O=C(c1cn(CCO)c2cc(-c3cn[nH]c3)ccc12)C1COc2cc(Cl)ccc2O1` (stereo not shown) [Compound 2-10]: the IC50 in test [1] was in the range of 51 to 500 nM; in test [2] it was 11 to 50 nM.

As for `O=C(c1cn(CCO)c2cc(-c3cn[nH]c3)ccc12)C1COc2cc(F)ccc2O1` (stereo not shown) [Compound 2-11], the results for the IC50 in test [1] and in test [2] were 51 to 500 nM and below 10 nM, respectively.

On to `O=C(c1cn(CCO)c2cc(-c3cn[nH]c3)ccc12)C1COc2cc(Cl)c(Cl)cc2O1` (stereo not shown) [Compound 2-12], for which the IC50 in test [1] and in test [2] was 51 to 500 nM throughout.

Turning to `O=C(c1cn(CCO)c2cc(-c3cn[nH]c3)ccc12)C1COc2ccc(Cl)cc2O1` (stereo not shown) [Compound 2-13], the results for the IC50 in test [1] and in test [2] were 51 to 500 nM and 11 to 50 nM, respectively.

As for `COc1ccc2c(c1)OC(C(=O)c1cn(CCO)c3cc(-c4cn[nH]c4)ccc13)CO2` (stereo not shown) [Compound 2-14], the IC50 was 11 to 50 nM in test [1] and below 10 nM in test [2].

For `COc1ccc2c(c1)CC(C(=O)c1cn(CCO)c3cc(-c4c[nH]nc4Cl)ccc13)CO2` (stereo not shown) [Compound 2-15], the IC50 in test [1] and in test [2] was below 10 nM in each case.

Take `O=C(c1cn(CCO)c2cc(-c3c[nH]nc3F)ccc12)C1COc2ccc(Cl)cc2C1` (stereo not shown) [Compound 2-16]: the IC50 in test [1] is 11 to 50 nM; in test [2] it was below 10 nM.

As for `O=C(c1cn(CCO)c2cc(-c3cn[nH]c3)ccc12)C1COc2ccccc2C1` (stereo not shown) [Compound 2-23], the IC50 in test [1] and in test [2] was 11 to 50 nM throughout.

Turning to `COCCn1nc(C(=O)C2COc3ccccc3C2)c2ccc(-c3cn[nH]c3)cc21` (stereo not shown) [Compound 2-24, Chroman-3-yl-[1-(2-methoxyethyl)-6-(1H-pyrazol-4-yl)indazol-3-yl]methanone], the IC50 is 11 to 50 nM in test [1] and below 10 nM in test [2].

In the case of `COCCn1nc(C(=O)[C@@H]2COc3ccccc3O2)c2ccc(-c3cn[nH]c3)cc21` [Compound 2-25], the IC50 in test [1] and in test [2] was 11 to 50 nM each time.

`O=C(c1nn(CCO)c2cc(-c3c[nH]nc3C(F)(F)F)ccc12)C1COc2ccc(F)cc2C1` (stereo not shown) [Compound 2-26]: the IC50 in test [1] and in test [2] was 51 to 500 nM each time.

Consider `COc1n[nH]cc1-c1ccc2c(C(=O)C3COc4ccc(F)cc4C3)nn(CCO)c2c1` (stereo not shown) [Compound 2-27], for which the half-inhibitory concentration (IC50) was 11 to 50 nM in test [1] and below 10 nM in test [2].

For orientation: IC50 means the concentration needed to halve the response being measured.
